Test results as given in patent EP4603105A1, “PHARMACEUTICAL COMPOSITION CONTAINING CYCLIC COMPOUND HAVING SELECTIVE KRAS INHIBITORY EFFECT AGAINST HRAS AND NRAS” (CHUGAI SEIYAKU KABUSHIKI KAISHA, priority 2022, dated 2024).

Legend:
[1] = test system: human colorectal cancer strain GP2d; format: cell-based
Method in brief: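 Cells seeded at 500 cells/well in DMEM with 10% FBS onto serially diluted compound in DMSO, then cultured 7 days at 37°C, 5% CO2. Viability read by CellTiter-Glo luminescence.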

HRAS wild-type protein = HRAS wild-type protein (Homo sapiens, UniProt P01112); assay: Binding to HRAS by surface plasmon resonance (SPR), KD and KD ratio to KRAS
Chain of HRAS wild-type protein (P01112 whole entry): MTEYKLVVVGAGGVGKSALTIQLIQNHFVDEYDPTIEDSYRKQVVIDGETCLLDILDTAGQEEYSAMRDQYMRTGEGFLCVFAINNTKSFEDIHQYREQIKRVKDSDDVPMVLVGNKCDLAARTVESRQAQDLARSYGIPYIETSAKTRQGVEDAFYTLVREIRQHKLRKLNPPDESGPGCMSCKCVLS
Method in brief: (§1)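 GDP-loaded biotinylated Avi-tag RAS proteins (E. coli-expressed) captured on a Biotin CAPture chip at ~100–300 RU; single-cycle kinetics at 30°C, 100 µL/min, 75 s injections of rising compound concentrations. HBS pH 7.4 running buffer with 1 mM DTT, 10 mM MgCl2, 10 µM GDP, 4% DMSO. KD from 1:1 binding fit.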

[2] = target: GDP-bound KRAS wild-type protein (Homo sapiens, UniProt P01116); assay: Binding to KRAS by surface plasmon resonance (SPR), dissociation constant KD
Chain of GDP-bound KRAS wild-type protein (P01116 1-188 isoform P01116-2): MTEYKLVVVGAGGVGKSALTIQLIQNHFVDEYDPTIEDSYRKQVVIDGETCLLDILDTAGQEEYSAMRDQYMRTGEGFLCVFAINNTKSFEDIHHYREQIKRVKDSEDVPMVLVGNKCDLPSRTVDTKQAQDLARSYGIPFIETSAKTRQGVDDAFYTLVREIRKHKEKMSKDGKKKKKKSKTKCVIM
Method in brief: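 Affinity is measured by surface plasmon resonance at 30°C against captured, GDP-loaded RAS carrying a biotinylated Avi tag. Compounds are titrated by single-cycle kinetics, and KD comes from a 1:1 fit.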

[3] = test system: human ovarian cancer strain OV7; format: cell-based
Method in brief: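 OV7 cells, 250 per well, in DMEM/Ham's F-12 with 5% FBS, 0.5 µg/mL hydrocortisone and 10 µg/mL insulin, grown 7 days at 37°C with serially diluted compound. Viability by CellTiter-Glo luminescence.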

[4] = target: GDP-bound NRAS wild-type protein (Homo sapiens, UniProt P01111); assay: Binding to NRAS by surface plasmon resonance (SPR), KD and KD ratio to KRAS
Chain of GDP-bound NRAS wild-type protein (P01111 whole entry): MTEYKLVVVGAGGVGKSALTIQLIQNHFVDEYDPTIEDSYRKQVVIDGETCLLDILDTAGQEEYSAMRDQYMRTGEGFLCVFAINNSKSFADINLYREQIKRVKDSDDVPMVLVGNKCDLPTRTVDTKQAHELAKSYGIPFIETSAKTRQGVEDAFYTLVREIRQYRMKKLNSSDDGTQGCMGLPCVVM
Method in brief: as §1

[5] = test system: human lung cancer strain NCI-H441; format: cell-based
Method in brief: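 Readout: […] after the ATP-based reagent. Compound: serial dilutions in dimethyl sulfoxide.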

[6] = test system: human gastric cancer strain SNU-1; format: cell-based
Method in brief: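 SNU-1 gastric cancer cells, 250 cells/well in RPMI-1640 with 10% FBS, glucose, HEPES and sodium pyruvate, plated onto serially diluted compound in DMSO.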

[7] = test system: human pancreatic cancer strain KP4; format: cell-based
Method in brief: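 KP4 pancreatic cancer cells seeded at 500 cells/well in DMEM/Ham's F-12 with 10% FBS onto serially diluted compound. Viability read by CellTiter-Glo luminescence.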

[8] = test system: human gastric cancer strain GSU; format: cell-based
Method in brief: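 Cells seeded at 200 per well in RPMI-1640 with 10% FBS onto serially diluted compound (DMSO) in U-bottom plates. Viability read by CellTiter-Glo luminescence.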

[9] = test system: human bladder cancer strain UM-UC-3; format: cell-based
Method in brief: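 UM-UC-3 human bladder cancer cells were seeded at 250 cells/well onto serially diluted compound in MEM with 10% FBS. Viability was read as CellTiter-Glo luminescence.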

[10] = ratio of KD for HRAS wild-type protein to KD for KRAS
[11] = ratio of KD for GDP-bound NRAS wild-type protein to KD for KRAS

IC50 [1]	Kd ([2]; Single Cycle Kinetics)	IC50 [3]	IC50 [5]	IC50 [6]	IC50 [7]	IC50 [8]	IC50 [9]	Kd ([2]; 1:1 binding model)	Kd ([2]; Single Cycle Kinetics, 1:1 binding model)	SMILES	HRAS /KRAS (HRAS wild-type protein; [10])	NRAS /KRAS [4, 11]	HRAS /KRAS (HRAS wild-type protein; ratio of KD value for HRAS wild-type protein to KD value for KRAS (SPR))	NRAS /KRAS ([4]; ratio of KD value for GDP-bound NRAS wild-type protein to KD value for KRAS (SPR))
1.8 nM	0.027 nM	4.1 nM	2.2 nM	3.1 nM	1.9 nM	0.6 nM	0.9 nM	–	–	CCO[C@@H]1C[C@H]2C(=O)N(C)C3(CCC3)C(=O)N(C)[C@@H](C3CCCC3)C(=O)N(C)[C@H](C(=O)N(C)C)CC(=O)N(C)[C@@H](CC(C)C)C(=O)N[C@@H]([C@@H](C)CC)C(=O)N(C)CC(=O)N(C)[C@H]3C/C=C\CCN(C3=O)[C@@H](Cc3ccc(C(F)(F)F)cc3)C(=O)N(C)CC(=O)N[C@@H](CCc3cc(F)c(C(F)(F)F)c(F)c3)C(=O)N2C1 [PP3484, (2S,8S,12R,14S,20S,23S,27S,30S,36S,38Z)-20-cyclopentyl-8-[2-[3,5-difluoro-4-(trifluoromethyl)phenyl]ethyl]-12-ethoxy-27-isobutyl-N,N,4,16,19,22,26,32,35-nonamethyl-30-[(1S)-1-methylpropyl]-3,6,9,15,18,21,25,28,31,34,42-undecaoxo-2-[[4-(trifluoromethyl)phenyl]methyl]spiro[1,4,7,10,16,19,22,26,29,32,35-undecazatricyclo[34.5.1.0^10,14]dotetracont-38-ene-17,1'-cyclobutane]-23-carboxamide]	A (a compound having 10 or more and less than 20 is denoted as A)	A (a compound having 10 or more and less than 20 is denoted as A)	–	–
2.9 nM	0.096 nM	4.3 nM	2.4 nM	4.3 nM	6.8 nM	0.6 nM	2.2 nM	–	–	CCO[C@@H]1C[C@H]2C(=O)OC3(CCC3)C(=O)N(C)[C@@H](C3CCCC3)C(=O)N(C)[C@H](C(=O)N(C)C)CC(=O)N(C)[C@@H]([C@@H](C)OC)C(=O)N[C@@H]([C@@H](C)CC)C(=O)N(C)CC(=O)N(C)[C@H]3C/C=C\CCN(C3=O)[C@@H](Cc3ccc(C(F)(F)F)cc3)C(=O)N(C)CC(=O)N[C@@H](CCc3ccc(C(F)(F)F)c(OC)c3)C(=O)N2C1 [PP3376, (2S,8S,12R,14S,20S,23S,27S,30S,36S,38Z)-20-cyclopentyl-12-ethoxy-27-[(1R)-1-methoxyethyl]-8-[2-[3-methoxy-4-(trifluoromethyl)phenyl]ethyl]-N,N,4,19,22,26,32,35-octamethyl-30-[(1S)-1-methylpropyl]-3,6,9,15,18,21,25,28,31,34,42-undecaoxo-2-[[4-(trifluoromethyl)phenyl]methyl]spiro[16-oxa-1,4,7,10,19,22,26,29,32,35-decazatricyclo[34.5.1.0^10,14]dotetracont-38-ene-17,1'-cyclobutane]-23-carboxamide]	A (a compound having 10 or more and less than 20 is denoted as A)	A (a compound having 10 or more and less than 20 is denoted as A)	–	–
12 nM	–	20.4 nM	14.9 nM	26.7 nM	28.7 nM	3.2 nM	15.4 nM	0.26 nM	–	CCC[C@H]1C(=O)N[C@@H]([C@@H](C)CC)C(=O)N(C2CC2)CC(=O)N(C)[C@H]2C/C=C\CCN(C2=O)[C@@H](Cc2ccc(C(F)(F)F)cc2)C(=O)N(C)CC(=O)N[C@@H](CCc2cc(F)c(C(F)(F)F)c(F)c2)C(=O)N2C[C@H](OCC)C[C@H]2C(=O)NC2(CC(C)(C)C2)C(=O)N(C)[C@@H](CC(C)(C)C)C(=O)N(C)[C@H](C(=O)N(C)C)CC(=O)N1C [PP2742]	A (a compound having 10 or more and less than 20 is denoted as A)	AA (a compound having 20 or more is denoted as AA)	–	–
2.4 nM	–	7.4 nM	1.1 nM	4.3 nM	14.2 nM	0.5 nM	4.1 nM	–	0.027 nM	CCCC[C@H]1C(=O)N[C@@H]([C@@H](C)CC)C(=O)N(C)CC(=O)N(C)[C@H]2C/C=C\CCN(C2=O)[C@@H](Cc2ccc(C(F)(F)F)cc2)C(=O)N(C)CC(=O)N[C@@H](CCc2cc(F)c(C(F)(F)F)c(F)c2)C(=O)N2C[C@H](F)C[C@H]2C(=O)NC2(CC(C)(C)C2)C(=O)N(C)[C@@H](C2CCCC2)C(=O)N(C)[C@H](C(=O)N(C)C)CC(=O)N1C [PP1693, (2S,8S,12R,14S,20S,23S,27S,30S,36S,38Z)-27-butyl-20-cyclopentyl-8-[2-[3,5-difluoro-4-(trifluoromethyl)phenyl]ethyl]-12-fluoro-N,N,3',3',4,19,22,26,32,35-decamethyl-30-[(1S)-1-methylpropyl]-3,6,9,15,18,21,25,28,31,34,42-undecaoxo-2-[[4-(trifluoromethyl)phenyl]methyl]spiro[1,4,7,10,16,19,22,26,29,32,35-undecazatricyclo[34.5.1.0^10,14]dotetracont-38-ene-17,1'-cyclobutane]-23-carboxamide]	–	–	A (a compound having 10 or more and less than 20 is denoted as A)	AA (a compound having 20 or more is denoted as AA)
